Key:
[1] = Volume of distribution at steady state in rat at 1 mg/kg, iv; assay type: ADME, organism-based; details: in vivo, read-out: Vdss
[2] = system: Staphylococcus aureus; experiment: Antibacterial activity against wild type Staphylococcus aureus; assay type: functional, organism-based
[3] = Cmax in rat at 100 mg/kg, iv; assay type: ADME, organism-based; details: in vivo
[4] = Toxicity in cardiovascular rat model assessed as decrease in blood pressure at 30 mg/kg,iv for 20 mins and measured after 20 mins of iv infusion with 100 mg/kg; assay type: organism-based; details: in vivo, 40 min
[5] = Toxicity in rhesus monkey assessed as adverse effects at 1 mg/kg, iv measured after 24 hrs; assay type: organism-based, Macaca mulatta; details: in vivo
[6] = Inhibition of Metallo-beta-lactamase VIM-1 (unknown origin); parameters: species or system Bacteria
[7] = Hemolytic activity in sheep red blood cells assessed as hemolysis; assay type: toxicity, cell-based, Ovis aries, Erythrocyte
[8] = MRT in rat at 1 mg/kg, iv; assay type: ADME, organism-based; details: in vivo
[9] = system: Klebsiella pneumoniae; experiment: Antibacterial activity against VIM-1 expressing Klebsiella pneumoniae IHMA599644 assessed as inhibition of bacterial growth in presence of IMI by absorbance based assay; assay type: functional
[10] = Cmax in rhesus monkey at 1 mg/kg, iv; assay type: ADME, organism-based, Macaca mulatta; details: in vivo
[11] = Unbound fraction in rhesus monkey plasma at 1 mg/kg, iv; assay type: ADME, organism-based, Macaca mulatta
[12] = Cmax in rat at 1 mg/kg, iv; assay type: ADME, organism-based; details: in vivo
[13] = MRT in rhesus monkey at 1 mg/kg, iv; assay type: ADME, organism-based, Macaca mulatta; details: in vivo
[14] = Cmax in rhesus monkey at 1 mg/kg, iv measured after 24 hrs; assay type: ADME, organism-based, Macaca mulatta; details: in vivo
[15] = Toxicity in cardiovascular rat model assessed as increase in histamine release in plasma at 30 mg/kg,iv for 20 mins and measured after 20 mins of iv infusion with 100 mg/kg; assay type: organism-based; details: in vivo, 40 min
[16] = system: Escherichia coli; experiment: Antibacterial activity against efflux mutant Escherichia coli; assay type: functional, organism-based
[17] = Unbound fraction in rat plasma at 1 mg/kg, iv; assay type: ADME, organism-based
[18] = Volume of distribution at steady state in rhesus monkey at 1 mg/kg, iv; assay type: ADME, organism-based, Macaca mulatta; details: in vivo, read-out: Vdss
[19] = system: Pseudomonas aeruginosa; experiment: Antibacterial activity against wildtype isogenic efflux/IMP-1 expressing Pseudomonas aeruginosa MB9798 assessed as inhibition of bacterial growth in presence of IMI by absorbance based assay; assay type: functional
[20] = Inhibition of Metallo-beta-lactamase VIM-2 (unknown origin); parameters: species or system Bacteria
[21] = Efflux ratio of MITC95 for antibacterial activity against wildtype isogenic efflux/IMP-1 expressing Pseudomonas aeruginosa MB9798 assessed as inhibition of bacterial growth in presence of IMI to MITC95 for antibacterial activity against mutant isogenic efflux/IMP-1 expressing Pseudomonas aeruginosa MB9799 assessed as inhibition of bacterial growth in presence of IMI; assay type: functional
[22] = AUC in rhesus monkey at 1 mg/kg, iv; assay type: ADME, organism-based, Macaca mulatta; details: in vivo
[23] = system: Serratia marcescens; experiment: Antibacterial activity against IMP-1 expressing Serratia marcescens CL5741 assessed as inhibition of bacterial growth in presence of IMI by absorbance based assay; assay type: functional
[24] = Clearance in rhesus monkey at 1 mg/kg, iv; assay type: ADME, organism-based, Macaca mulatta; details: in vivo
[25] = system: Escherichia coli; experiment: Antibacterial activity against NDM-1 expressing Escherichia coli CLB30016 assessed as inhibition of bacterial growth in presence of IMI by absorbance based assay; assay type: functional
[26] = Clearance in rat at 1 mg/kg, iv; assay type: ADME, organism-based; details: in vivo
[27] = Toxicity in cardiovascular rat model assessed as increase in histamine release in plasma at 100 mg/kg, iv; assay type: organism-based; details: in vivo
[28] = AUC in rat at 1 mg/kg, iv; assay type: ADME, organism-based; details: in vivo
[29] = Toxicity in rat mast cells assessed as degranulation by measuring histamine release at 900 microM; assay type: cell-based; details: mast cell
[30] = Inhibition of Metallo-beta-lactamase IMP-1 (unknown origin); parameters: species or system Bacteria
[31] = system: Pseudomonas aeruginosa; experiment: Antibacterial activity against mutant isogenic efflux/IMP-1 expressing Pseudomonas aeruginosa MB9799 assessed as inhibition of bacterial growth in presence of IMI by absorbance based assay; assay type: functional
[32] = Toxicity in rat assessed as anaphylaxis at 1 mg/kg, iv; assay type: organism-based; details: in vivo
[33] = Toxicity in cardiovascular rat model assessed as increase in histamine release in plasma at 30 mg/kg, iv; assay type: organism-based; details: in vivo
[34] = Toxicity in rat assessed as watery eyes at 1 mg/kg, iv; assay type: organism-based; details: in vivo
[35] = Toxicity in cardiovascular rat model assessed as decrease in blood pressure at 3 mg/kg,iv for 20 mins followed by 10 mg/kg, iv dose for next 20 mins and measured after 20 mins of iv dose with 30 mg/kg; assay type: organism-based; details: in vivo, 1 h, time 60 min
[36] = biological target: Metallo-beta-lactamase type 2 (Bacteria, UniProt C7C422); experiment: Inhibition of Metallo-beta-lactamase NDM-1 (unknown origin)
Sequence of Metallo-beta-lactamase type 2 (C7C422 whole entry): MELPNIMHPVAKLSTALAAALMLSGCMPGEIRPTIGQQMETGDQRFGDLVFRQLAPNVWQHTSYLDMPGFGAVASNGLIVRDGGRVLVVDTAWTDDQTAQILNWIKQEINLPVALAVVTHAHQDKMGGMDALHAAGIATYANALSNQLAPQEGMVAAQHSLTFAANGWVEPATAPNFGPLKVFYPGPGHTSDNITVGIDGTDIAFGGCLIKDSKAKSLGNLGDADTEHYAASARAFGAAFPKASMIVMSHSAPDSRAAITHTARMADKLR

[37] = Toxicity in rat assessed as emesis at 1 mg/kg, iv; assay type: organism-based; details: in vivo
[38] = Toxicity in dog assessed as anaphylaxis at 1 mg/kg; assay type: organism-based, Canis lupus familiaris; details: in vivo
[39] = Toxicity in rat mast cells assessed as degranulation by measuring histamine release at >=300 microM; assay type: cell-based; details: mast cell
[40] = Cmax in rat at 30 mg/kg, iv; assay type: ADME, organism-based; details: in vivo
[41] = Toxicity in dog assessed as emesis at 1 mg/kg; assay type: organism-based, Canis lupus familiaris; details: in vivo
[42] = Toxicity in dog assessed as watery eyes at 1 mg/kg; assay type: organism-based, Canis lupus familiaris; details: in vivo
[43] = Toxicity in cardiovascular rat model assessed as increase in histamine release in plasma at 3 mg/kg,iv for 20 mins followed by 10 mg/kg, iv dose for next 20 mins and measured after 20 mins of iv dose with 30 mg/kg; assay type: organism-based; details: in vivo, 1 h, time 60 min

Compound `NCCS(=O)(=O)c1ccc(-c2cccc3sc(N)nc23)c(-c2nn[nH]n2)c1S(N)(=O)=O` has a Vd [1] of 0.46 L/kg, an IC50 [2] greater than 200000 nM and a Cmax [3] of 569 µM. For the same compound, the Activity [4] was “Toxic”, the Activity [5] was “Non-toxic” and the IC50 [6] was 0.31 nM. For the same compound, the IC50 [7] was greater than 200000 nM, the MRT [8] was 13.8 min and the MITC95 [9] was 3.13 µM. It also gave a Cmax [10] of 18 µM, a fraction unbound [11] of 0.23 and a Cmax [12] of 5.8 µM. The MRT [13] was 109 min, the Cmax [14] was 18 µM and the Activity [15] was “Non-toxic”. It also gave an IC50 [16] greater than 200000 nM, a fraction unbound [17] of 0.37 and a Vd [18] of 0.39 L/kg. The MITC95 [19] was 0.78 µM, the IC50 [20] was 1 nM and the Ratio [21] was roughly 1. For the same compound, the AUC [22] was 10.2 µM·h, the MITC95 [23] was 1.56 µM and the clearance [24] was 3.6 mL/min/kg. For the same compound, the MITC95 [25] was 0.78 µM, the clearance [26] was 32.1 mL/min/kg and the Activity [27] was “Non-toxic”. The AUC [28] was 1.15 µM·h, the Activity [29] was “Non-toxic” and the IC50 [30] was 0.23 nM.

Compound `NCCS(=O)(=O)c1ccc(-c2ccc(C3CCNCC3)cc2)c(-c2nn[nH]n2)c1S(N)(=O)=O` has an MITC95 [31] of 0.78 µM, an IC50 [6] of 0.2 nM and an MITC95 [9] of 3.13 µM. The Ratio [21] was 2, the MITC95 [23] was 1.56 µM and the MITC95 [25] was 1.56 µM. It also gave an IC50 [30] of 0.17 nM.

In the case of `NS(=O)(=O)c1c(CC2CCNCC2)ccc(-c2ccc(C3CCNCC3)cc2)c1-c1nn[nH]n1`, the Activity [32] is reported as “Toxic”, the Activity [33] is reported as “Toxic” and the MITC95 [31] is reported as 0.8 µM. For the same compound, the Activity [34] was “Toxic”, the Activity [35] was “Toxic” and the IC50 [36] was 11 nM. For the same compound, the IC50 [6] was 5 nM, the MITC95 [9] was 2.3 µM and the Activity [37] was “Toxic”. The Activity [38] was “Toxic”, the MITC95 [19] was 4.4 µM and the IC50 [20] was 1230 nM. The Ratio [21] was 6, the Activity [39] was “Toxic” and the MITC95 [23] was 3.9 µM. The Cmax [40] was 459 µM, the Activity [41] was “Toxic” and the MITC95 [25] was 2 µM. The Activity [42] was “Toxic”, the IC50 [30] was 24 nM and the Activity [43] was “Toxic”.

`NS(=O)(=O)c1c([S+]([O-])C2CCNCC2)ccc(-c2ccc(C3CCNCC3)cc2)c1-c1nnn[nH]1` (stereo unspecified) gave an MITC95 [31] of 1.56 µM, an IC50 [6] of 1.18 nM and an MITC95 [9] of 6.25 µM. For the same compound, the MITC95 [19] was 3.1 µM, the IC50 [20] was 1090 nM and the Ratio [21] was 2. For the same compound, the MITC95 [23] was 6.25 µM, the MITC95 [25] was 3.13 µM and the IC50 [30] was 5.9 nM.

For `NS(=O)(=O)c1c(S(=O)(=O)C2CCNCC2)ccc(-c2ccc(C3CCNCC3)cc2)c1-c1nnn[nH]1`, the Vd [1] was 0.18 L/kg, the MITC95 [31] was 0.78 µM and the IC50 [6] was 0.31 nM. For the same compound, the MRT [8] was 46.8 min, the MITC95 [9] was 3.13 µM and the Cmax [12] was 15.8 µM. For the same compound, the fraction unbound [17] was 0.66, the MITC95 [19] was 0.78 µM and the IC50 [20] was 4.1 nM. It also gave a Ratio [21] of 1, an MITC95 [23] of 3.13 µM and an MITC95 [25] of 1.56 µM. The clearance [26] was 3.8 mL/min/kg, the AUC [28] was 8.4 µM·h and the IC50 [30] was 0.52 nM.

In the case of `NS(=O)(=O)c1c(SC2CCNCC2)ccc(-c2ccc(C3CCNCC3)cc2)c1-c1nnn[nH]1`, the MITC95 [31] is reported as 0.78 µM, the IC50 [6] is reported as 48.5 nM and the MITC95 [9] is reported as 6.25 µM. For the same compound, the MITC95 [19] was 25 µM, the Ratio [21] was 32 and the MITC95 [23] was 3.13 µM. The MITC95 [25] was 1.56 µM and the IC50 [30] was 35.7 nM.

Compound `Cc1ccc(-c2cccc(S(N)(=O)=O)c2-c2nnn[nH]2)cc1` has an IC50 [36] of 3.7 nM, an IC50 [6] of 57 nM and an MITC95 [9] of 127 µM. For the same compound, the MITC95 [23] was 14 µM, the MITC95 [25] was 1.5 µM and the IC50 [30] was 64 nM.

From ChEMBL document CHEMBL6083247, “Discovery of sulfone containing metallo-β-lactamase inhibitors with reduced bacterial cell efflux and histamine release issues” (Bioorg Med Chem Lett, 2024)
